Experimental data published in patent publication US7084136B2, “Drug composition antagonistic to both PGD2/TXA2 receptors” (Shionogi & Co., Ltd., priority 2000, dated 2006).

Experiments:
TXA2 receptor = molecular target: T1, TXA2 receptor (Homo sapiens, UniProt P21731); assay: Binding activity to TXA2 receptor ([3H](+)-S-145 sodium salt, human platelet membrane fraction); settings: human platelet membrane fraction; 2 nM [3H](+)-S-145 sodium salt; read-out: Binding activity to TXA2 receptor in human platelet membrane fraction IC50
T1 construct: The human platelet membrane fraction was prepared in accordance with Experiment 1 (1); from tissue; host or cells: human platelet membrane fraction from blood of healthy volunteers
T1 sequence (P21731 1-343): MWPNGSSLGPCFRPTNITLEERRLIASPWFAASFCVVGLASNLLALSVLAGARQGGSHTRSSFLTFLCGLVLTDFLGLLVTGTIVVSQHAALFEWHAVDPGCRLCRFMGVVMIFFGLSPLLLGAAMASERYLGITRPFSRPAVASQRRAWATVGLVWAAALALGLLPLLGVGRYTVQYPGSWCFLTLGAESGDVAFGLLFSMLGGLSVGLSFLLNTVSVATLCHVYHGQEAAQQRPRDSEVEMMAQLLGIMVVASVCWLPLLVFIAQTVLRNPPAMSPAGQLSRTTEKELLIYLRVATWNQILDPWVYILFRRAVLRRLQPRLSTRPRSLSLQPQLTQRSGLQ
Description: Experiment 2 Binding Activity to TXA2 Receptor
(§1) (1) Preparation of Human Platelet Membrane Fraction
The human platelet membrane fraction was prepared in accordance with Experiment 1 (1).
(2) Binding to TXA2 Receptor
To a binding-reaction solution (50 mM Tris/HCl, pH 7.4, 10 mM MgCl2) (0.2 ml) were added the human platelet membrane fraction (0.05 mg) and 2 nM Sodium [^3H](+)-(5Z)-7-[3-endo-[(phenylsulfonyl)amino]bicyclo[2.2.1]hept-2-exo-yl]heptenoate (Japanese Patent Publication (Kokoku) No.79060/1993, hereinafter referred to as (+)-S-145 sodium salt) (26.4 Ci/mmol), and the mixture was reacted at room temperature for 90 min. After the reaction, the resultant mixture was filtered through a glass fiber filter paper and washed several times with cooled physiological saline, then the radioactivity retained on the filter paper was measured. The specific-binding ratio was calculated by subtracting the non-specific binding ratio (the radio activity similarly determined in the presence of 10 μM (+)-S-145 sodium salt) from the total binding. The inhibitory activity of each compound was expressed as the concentration required for 50% inhibition (IC50), which was determined by depicting a substitution curve by plotting the binding ratio (%) in the presence of each compound, where the binding ratio in the absence of a test compound is 100%.

PGD2 receptor [1] = molecular target: T2, PGD2 receptor (Homo sapiens, UniProt Q13258); assay: Antagonistic activity against PGD2 receptor using human platelet (inhibition of PGD2-induced cAMP increase); type: cell-based; settings: human platelet; 0.1 μM PGD2; read-out: Inhibitory activity for the increase of cAMP caused by PGD2 in human platelet IC50
T2 construct: A suspension adjusted to contain the platelets at a final concentration of 5×10^8/ml was warmed at 37° C; endogenous in cells; host or cells: washed human platelets from a healthy volunteer
T2 sequence (Q13258 1-359): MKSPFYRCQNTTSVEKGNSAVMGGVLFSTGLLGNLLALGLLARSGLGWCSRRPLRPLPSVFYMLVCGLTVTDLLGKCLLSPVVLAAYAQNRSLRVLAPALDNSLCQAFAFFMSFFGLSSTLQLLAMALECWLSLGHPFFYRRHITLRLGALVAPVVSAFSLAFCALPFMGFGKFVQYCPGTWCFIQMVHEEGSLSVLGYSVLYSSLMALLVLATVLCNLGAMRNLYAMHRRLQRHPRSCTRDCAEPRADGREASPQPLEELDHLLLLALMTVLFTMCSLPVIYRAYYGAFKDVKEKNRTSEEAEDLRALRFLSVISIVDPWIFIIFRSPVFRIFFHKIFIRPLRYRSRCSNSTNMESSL
Description: Experiment 3 Evaluation of Antagonistic Activity Against PGD2 Receptor
Receptor Using Human Platelet
Peripheral blood was collected from a healthy volunteer using a syringe in which 1/9 volume of a citric acid/dextrose solution was previously added. The sample was subjected to centrifugation at 1200 rpm for 10 min to obtain the supernatant (PRP: platelet rich plasma). The resultant PRP was washed 3 times with a washing buffer and the number of platelets was counted with a micro cell counter. A suspension adjusted to contain the platelets at a final concentration of 5×10^8/ml was warmed at 37° C., then subjected to the pre-treatment with 3-isobutyl-1-methylxanthine (0.5 mM) for 5 min. To the suspension was added a test compound diluted at various concentration, and 10 minutes later, 0.1 μM PGD2 was added to induce the reaction 2 minutes later, hydrochloric acid was added to terminate the reaction. The platelet was destroyed with an ultrasonic homogenizer. After centrifugation, the cAMP in the supernatant was determined by radioimmunoassay. PGD2 receptor antagonism of a drug was evaluated as follows: the inhibition rate regarding cAMP increased by the addition of PGD2 was determined at each concentration, and the concentration of the drug required for 50% inhibition (IC50) was calculated.

PGD2 receptor [2] = molecular target: T2, PGD2 receptor; assay: Binding activity to PGD2 receptor ([3H]PGD2, human platelet membrane fraction); settings: human platelet membrane fraction; read-out: Binding activity to PGD2 receptor in human platelet membrane fraction IC50
Description: Experiment 1 Binding Activity to PGD2 Receptor
as §1
Blood was collected using a plastic syringe containing 3.8% sodium citrate from the vein of healthy volunteers (adult male and female), then put into a plastic test tube and mixed by slow-reversion. The sample was then centrifuged at 1800 rpm, for 10 min at room temperature, and the supernatant containing PRP (platelet-rich plasma) was collected. The PRP was re-centrifuged at 2300 rpm, for 22 min at room temperature to obtain platelets. The platelets were homogenized using a homogenizer (Ultra-Turrax) followed by centrifugation 3 times at 20,000 rpm, 10 min at 4° C. to obtain a platelet membrane fraction. After protein determination, the membrane fraction was adjusted to 2 mg/ml and preserved in a refrigerator at −80° C. until using for the binding test.
(2) Binding to PGD2 Receptor
To a binding-reaction solution (50 mM Tris/HCl, pH 7.4, 5 mM MgCl2) (0.2 ml) were added the human platelet membrane fraction (0.1 mg) and 5 nM [^3H]PGD2 (115 Ci/mmol), and the mixture was reacted at 4° C. for 90 min. After the reaction, the mixture was filtered through a glass fiber filter paper and washed several times with cooled physiological saline, then the radioactivity retained on the filter paper was measured. The specific-binding ratio was calculated by subtracting the non-specific binding ratio which is the radioactivity similarly measured in the presence of 10 μM PGD2 from the total binding. The inhibitory activity of each compound was expressed as the concentration required for 50% inhibition (IC50), which was determined by depicting a substitution curve by plotting the binding ratio (%) in the presence of each compound, where the binding ratio in the absence of a test compound is 100%.

[3] = Change of plasma concentration of drug in rat (half life of the disappearance after i.v. administration); type: in vivo; settings: Jcl-SD male rats, 0.5 to 2 mg/kg intravenously, unchanged compound
Description: Experiment 4 Change of Plasma Concentration of Drug in Rat
Compound (0.5 to 2 mg/kg) was administered intravenously to Jcl-SD male rats.

Row | Structure (SMILES) | IC50 (TXA2 receptor) [nM] | IC50 (PGD2 receptor [1]) [nM] | IC50 (PGD2 receptor [2]) [nM] | half life of the disappearance [3] [min]
1 | O=C(O)CCC/C=C\C[C@H]1[C@@H]2CC[C@@H](C2)[C@@H]1NC(=O)c1ccc(S(=O)(=O)n2cccc2)s1 [I-1] | 3 | 1.3 | 4.3 | 9.4
2 | O=C(O)COCCCC[C@H]1[C@@H]2CC[C@@H](C2)[C@@H]1NC(=O)c1ccc(S(=O)(=O)n2cccc2)s1 [I-7M-1a] |  |  |  | 26.3
3 | O=C(O)CCC/C=C\C[C@H]1[C@@H]2CC[C@@H](C2)[C@@H]1NC(=O)c1csc2c(Cc3ccccc3)cccc12 [I-143] | 28 | 1.9 | 2.7 | 4.7
4 | O=C(O)CCC/C=C\C[C@H]1[C@@H]2CC[C@@H](C2)[C@@H]1NC(=O)c1csc2c(Cc3ccoc3)cccc12 [I-170] | 27 | 17 | 0.92 | 
5 | O=C(O)CCC/C=C\C[C@H]1[C@@H]2CC[C@@H](C2)[C@@H]1NC(=O)c1ccc(Cc2csc3ccccc23)s1 [I-182] | 28 | 11 | 61 | 

Next, values leading:

Row | IC50 (TXA2 receptor) [nM] | IC50 (PGD2 receptor [1]) [nM] | IC50 (PGD2 receptor [2]) [nM] | half life of the disappearance [3] [min] | Structure (SMILES)
6 | 12 | 11 | 2 |  | CC1(C)[C@H]2C[C@H](C/C=C\CCCC(=O)O)[C@@H](NC(=O)c3ccc(S(=O)(=O)n4cccc4)s3)[C@@H]1C2 [II-1]
7 | 4.3 | 35 | 26 |  | CC1(C)[C@H]2C[C@H](C/C=C\CCCC(=O)O)[C@@H](NC(=O)c3ccc(S(=O)(=O)c4ccccc4)s3)[C@@H]1C2 [II-37]
8 | 3.6 | 4 | 0.96 |  | CC1(C)[C@H]2C[C@H](C/C=C\CCCC(=O)O)[C@@H](NC(=O)c3ccc(S(=O)(=O)c4cccs4)s3)[C@@H]1C2 [II-47]
9 | 4.4 | 3.9 | 1.5 |  | Cc1cccn1S(=O)(=O)c1ccc(C(=O)N[C@@H]2[C@@H](C/C=C\CCCC(=O)O)C[C@H]3C[C@@H]2C3(C)C)s1 [II-55]
10 | 14 | 24 | 0.1 | 11.0 | CC1(C)[C@H]2C[C@H](C/C=C\CCCC(=O)O)[C@@H](NC(=O)c3ccc(Sc4cccs4)s3)[C@@H]1C2 [II-59]
11 | 4 | 45 | 72 |  | Cc1cc(S(=O)(=O)c2ccc(C(=O)N[C@@H]3[C@@H](C/C=C\CCCC(=O)O)C[C@H]4C[C@@H]3C4(C)C)s2)cs1 [II-101]
12 | 2.6 | 24 | 22 |  | CC1(C)[C@H]2C[C@H](C/C=C\CCCC(=O)O)[C@@H](NC(=O)c3ccc(S(=O)(=O)c4cccc(O)c4)s3)[C@@H]1C2 [II-117]
13 | 45 | 4 | 4.6 |  | COc1ccccc1Cc1ccc(C(=O)N[C@@H]2[C@@H](C/C=C\CCCC(=O)O)C[C@H]3C[C@@H]2C3(C)C)s1 [II-126]
14 | 72 | 25 | 32 |  | CC1(C)[C@H]2C[C@H](C/C=C\CCCC(=O)O)[C@@H](NC(=O)c3ccc(Cc4cccc(-c5ccccc5)c4)s3)[C@@H]1C2 [II-138]
